“And” between values parts separate entries of the source, which are not always exact repeats. Equal values may be shown once. Read-outs that look alike come from different tables or passages of the source.

The results in this text go back to publication PMC7494911.

Test [1] has as its system αvβ6-mediated TGFβ activation. Briefly: cells. In kind it is cell-based, human. Conditions: for IC50: Homo sapiens; for activity: read-out: % inhibition of pSmad2 (NHBE cells).
Test [2] has as its system pSmad2 in IPF PCLS. Nature of the test: pSmad2 in precision cut lung slices (PCLS) from IPF patients. In kind it is cell-based, human. Conditions: for IPF PCLS pSmad2/tSmad2 ratio: 1 µM compound, individual replicates n=1-3 (Fig 5f). The method, then: Human fibrotic lung tissue was collected from human explants after transplantation. Tissue which the pathologist deemed suitable for research was inflated with 2–3% low boiling point agarose, with the agarose being allowed to set at 4 °C. PCLS were then cut at 400 μm on a vibrating microtome and cultured in DMEM media.

In test [3] the test system is pSmad2 in lung tissue. Nature of the test: Lung tissue pSmad2 in bleomycin-treated mice, single dose. In kind it is in vivo, mouse. The method, then:
(§1) For the measurement of concentration-dependent effects of αvβ6 and TGFβR1 inhibitors on TGFβ activation and signaling in NHBE cells, pSmad2 (normalized to GAPDH) was measured. pSmad2 and GAPDH was quantified using the Milliplex TGFβ Signaling Magnetic Bead Panel 6 plex (Merck Millipore, Billerica, MA, USA) luminex assay according to the manufacturer’s instructions. pSmad2 was determined using the same method for in vivo and ex vivo tissue and BAL samples, however data were normalized to tSmad2. tSmad2 was measured in the Pathscan Total Smad2 sandwich ELISA kit (Cell Signaling Technologies, London, UK), according to the manufacturer’s instructions with standard curves generated using recombinant GST-Smad2. βIG-H3 was determined in mouse and human BAL fluid samples using the mouse or human βIG-H3 DuoSet ELISA kit (R&D Systems, Abingdon, USA) respectively, according to the manufacturer’s instructions. PAI-1 was determined in mouse and human BAL fluid samples using the mouse or human PAI-1 Total antigen ELISA kit (Molecular Innovations, Novi, MI, USA) respectively, according to the manufacturer’s instructions.
(§2) Animal welfare followed the requirements of the Home Office Code of Practice for the Housing and Care of Animals used in Scientific Procedures. […] Play tunnels and bedding material were used to provide environmental enrichment. […]

Test [4] concerns pSmad2 in BAL cells. In kind it is in vivo, mouse. Conditions: bleomycin mice. The method, then:
as §1, §2

[5] abbreviates: 30 mg/kg p.o., 2 h post dosing, in words.
Where [6] appears, read: SB-525334 30 mg/kg p.o., 2 h, individual animals, 30 mg/kg.

For `Cc1cc(C)n(-c2cccc([C@H](CC(=O)O)CN3CC[C@@H](CCc4ccc5c(n4)NCCC5)C3)c2)n1` [GSK3008348], the IC50 in test [1] (NHBE cells, read-out: IC50 for inhibition of αvβ6-mediated TGFβ activation (pSmad2)) was 0.15 nM; in test [1] (NHBE cells, read-out: pIC50 for inhibition of αvβ6-mediated TGFβ activation (pSmad2) (converted)) it was 0.741 nM; in test [2] (Homo sapiens, IPF PCLS, 48 h, read-out: approximate IC50 for reduction of pSmad2) it was about 3 nM. Moreover, the activity in test [1] (Log [GSK3008348] M -9) is 47% and 37% and 58% and 41%; in test [1] (Log [GSK3008348] M -10.8) it was 108%; in test [1] it was 92% and 95%.

On to `O=C(O)C[C@@H]1Cc2ccc(OCCCNc3ccccn3)cc2CN(CC(F)(F)F)C1=O` [SB-267268], for which the “IPF PCLS pSmad2/tSmad2 ratio” value in test [2] (IPF PCLS) was 0.766 and 0.64 and 0.76. Moreover, the “pSmad2 levels in IPF PCLS” value in test [2] (in words) is listed as “Neither compound inhibited pSmad2 levels”.

For the molecule `Cc1cccc(-c2[nH]c(C(C)(C)C)nc2-c2ccc3nccnc3c2)n1` [SB-525334], the “pSmad2 levels in lung tissue” value in test [3] (setting [5]) was “significantly reduce”. Also, the “Lung tissue pSmad2/tSmad2 ratio” value in test [3] (setting [6]) was 0.09 and 0.07 and 0.1 and 0.13. In test [4] (setting [5]), the “pSmad2 levels in BAL cells” value is reported as “significantly reduce”. Moreover, the “BAL cell pSmad2/tSmad2 ratio” value in test [4] (setting [6]) was 1.33 and 0.67 and 0.7 and 1.48 and 0.61 and 0.44 and 2.35 and 1.1 and 1. Further, the activity in test [1] (Log [SB-525334] M -6) is 15% and 11% and 10% and 14%; in test [1] (Log [SB-525334] M -9), 138% and 105% and 82% and 100%; in test [1] (Log [SB-525334] M -11.4) it was 114%. For the same molecule, the “pIC50 for inhibition of αvβ6-mediated TGFβ activation (pSmad2)” value in test [1] (NHBE cells) came out at 7.28 ± 0.13. In addition, the “IPF PCLS pSmad2/tSmad2 ratio” value in test [2] (IPF PCLS) is 0.063 and 0.062 and 0.055. For the same molecule, the “% pSmad2 in IPF PCLS” value in test [2] (SB-525334 1µM) was 1% and 0% and -1%.
